Assays:
HIS-AXL 473-End = HIS-AXL 473-End (Homo sapiens (Human), UniProt P30530); assay: AXL kinase homogeneous time resolved fluorescence (HTRF) binding assay; settings: 1 nM kinase, fluorescein-labeled kinase tracer at Kd, 60 minutes at room temperature
Protocol: (§1) MERTK, AXL, TYRO3 Kinase Homogeneous Time Resolved Fluorescence (HTRF) Assay
(§2) Assays were performed in black, flat-bottom, 1536-well plates. The reactions were incubated at room temperature for 60 minutes, following which the HTRF signals, ratio of fluorescence intensities at emission wavelengths for fluorescein acceptor (520 nm) and terbium donor (495 nm), the 520/495 ratio, were measured on the Envision Plate reader. Inhibition data were calculated from the 520/495 ratio generated by the no protein control reactions for 100% inhibition and vehicle-only reactions for 0% inhibition, and dose response curves generated to determine the concentration required for inhibiting 50% of the HTRF signal (IC50). Compounds were dissolved at 10 mM in dimethylsulfoxide (DMSO) and evaluated at eleven concentrations.

GST-MERTK 578-872 = GST-MERTK 578-872 (Homo sapiens (Human), UniProt Q12866); assay: MERTK kinase homogeneous time resolved fluorescence (HTRF) binding assay; settings: 1 nM kinase, fluorescein-labeled kinase tracer at Kd, 60 minutes at room temperature; read-out: Mer HTRF IC50
Protocol: as §1, §2

HIS-AXL 473-End, sequence (P30530 473-894): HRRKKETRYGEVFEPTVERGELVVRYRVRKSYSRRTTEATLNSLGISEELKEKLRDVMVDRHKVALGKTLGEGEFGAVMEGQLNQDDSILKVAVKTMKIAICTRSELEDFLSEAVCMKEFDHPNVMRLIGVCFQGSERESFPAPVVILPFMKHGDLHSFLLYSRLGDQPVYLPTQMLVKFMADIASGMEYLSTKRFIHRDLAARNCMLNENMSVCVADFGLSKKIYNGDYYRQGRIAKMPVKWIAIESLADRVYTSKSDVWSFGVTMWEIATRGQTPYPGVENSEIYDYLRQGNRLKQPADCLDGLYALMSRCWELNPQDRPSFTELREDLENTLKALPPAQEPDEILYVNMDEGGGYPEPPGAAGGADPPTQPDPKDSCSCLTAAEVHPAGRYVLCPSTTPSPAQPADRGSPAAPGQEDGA
GST-MERTK 578-872, sequence (Q12866 578-872): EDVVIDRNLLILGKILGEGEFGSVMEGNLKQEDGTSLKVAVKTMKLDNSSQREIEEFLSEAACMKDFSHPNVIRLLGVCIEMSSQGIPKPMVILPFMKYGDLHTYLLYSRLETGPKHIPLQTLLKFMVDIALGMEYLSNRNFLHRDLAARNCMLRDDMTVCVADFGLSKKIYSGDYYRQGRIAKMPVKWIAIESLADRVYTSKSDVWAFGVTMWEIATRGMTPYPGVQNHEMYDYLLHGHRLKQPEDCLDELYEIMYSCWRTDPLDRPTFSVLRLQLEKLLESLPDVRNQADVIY

Row | Compound | IC50 (HIS-AXL 473-End) [nM] | IC50 (GST-MERTK 578-872) [nM]
1 | CC(C)n1cc(C(=O)Nc2ccc(Oc3ccnc(Nc4ccc(S(=O)(=O)N(C)C)cn4)c3)c(F)c2)c(=O)n(-c2ccccc2)c1=O [Example 42] | 7.4 | 21
2 | CN(C)S(=O)(=O)c1ccc(Nc2cc(Oc3ccc(NC(=O)c4cn(C5CC5)c(=O)n(-c5ccccc5)c4=O)cc3F)ccn2)nc1 [Example 43] | 222 | 21
3 | CN(C)S(=O)(=O)c1ccc(Nc2cc(Oc3ccc(NC(=O)c4cn(C)c(=O)n(-c5ccc(F)cc5)c4=O)cc3F)ccn2)nc1 [Example 44] | 19 | 71
4 | COC[C@H](C)n1cc(C(=O)Nc2ccc(Oc3ccnc(Nc4ccc(S(=O)(=O)N(C)C)cn4)c3)c(F)c2)c(=O)n(-c2ccc(F)cc2)c1=O [Example 45] | 21 | 40
5 | CN(C)S(=O)(=O)c1ccc(Nc2cc(Oc3ccc(NC(=O)c4cn([C@@H]5CCOC5)c(=O)n(-c5ccc(F)cc5)c4=O)cc3F)ccn2)nc1 [Example 46] | 5.4 | 12
6 | CN(C)S(=O)(=O)c1ccc(Nc2cc(Oc3ccc(NC(=O)c4cn([C@H]5CCOC5)c(=O)n(-c5ccc(F)cc5)c4=O)cc3F)ccn2)nc1 [Example 47] | 6 | 7.9
7 | CC(C)n1cc(C(=O)Nc2ccc(Oc3ccnc(Nc4ccc(S(=O)(=O)N(C)C)cn4)c3)c(F)c2)c(=O)n(-c2ccc(F)cn2)c1=O [Example 48] | 4.4 | 15
8 | CC(C)n1cc(C(=O)Nc2ccc(Oc3ccnc(Nc4ccc(S(=O)(=O)N(C)C)cn4)c3)c(F)c2)c(=O)n(Cc2ccccc2)c1=O [Example 49] | 110 | 3310
9 | CC(C)n1cc(C(=O)Nc2ccc(Oc3ccnc(Nc4ccc(S(=O)(=O)N(C)C)cn4)c3)c(F)c2)c(=O)n(C2CCCCC2)c1=O [Example 53] | 256 | 487
10 | CC(C)n1cc(C(=O)Nc2ccc(Oc3ccnc(Nc4ccc(S(=O)(=O)N(C)C)cn4)c3)c(F)c2)c(=O)n(Cc2ccncc2)c1=O [Example 58] | 287 | 201
11 | Cc1ccc(-n2c(=O)c(C(=O)Nc3ccc(Oc4ccnc(Nc5ccc(S(=O)(=O)N(C)C)cn5)c4)c(F)c3)cn(C(C)C)c2=O)cc1 [Example 62, N-{4-[(2-{[5-(Dimethylsulfamoyl)pyridin-2-yl]amino}pyridin-4-yl)oxy]-3-fluorophenyl}-3-(4-methylphenyl)-2,4-dioxo-1-(propan-2-yl)-1,2,3,4-tetrahydropyrimidine-5-carboxamide] | 4.6 | 23
12 | CC(=O)c1ccc(-n2c(=O)c(C(=O)Nc3ccc(Oc4ccnc(Nc5ccc(S(=O)(=O)N(C)C)cn5)c4)c(F)c3)cn(C(C)C)c2=O)cc1 [Example 64] | 181 | 814
13 | CC(C)n1cc(C(=O)Nc2ccc(Oc3ccnc(Nc4ccc(S(=O)(=O)N(C)C)cn4)c3)c(F)c2)c(=O)n(-c2ccc(C(F)(F)F)cc2)c1=O [Example 65] | 100 | 127
14 | CC(C)n1cc(C(=O)Nc2ccc(Oc3ccnc(Nc4ccc(S(=O)(=O)N(C)C)cn4)c3)c(F)c2)c(=O)n(-c2ccc(Cl)cc2)c1=O [Example 66] | 31 | 29
15 | CC(C)n1cc(C(=O)Nc2ccc(Oc3ccnc(Nc4ccc(S(=O)(=O)N(C)C)cn4)c3)c(F)c2)c(=O)n(-c2cccc(F)c2)c1=O [Example 68] | 7.1 | 20
16 | CC(C)n1cc(C(=O)Nc2ccc(Oc3ccnc(Nc4ccc(S(=O)(=O)N(C)C)cn4)c3)c(F)c2)c(=O)n(-c2ccc(F)c(F)c2)c1=O [Example 69] | 18 | 23
17 | Cc1cccc(-n2c(=O)c(C(=O)Nc3ccc(Oc4ccnc(Nc5ccc(S(=O)(=O)N(C)C)cn5)c4)c(F)c3)cn(C(C)C)c2=O)c1 [Example 70] | 14 | 14
18 | COc1cccc(-n2c(=O)c(C(=O)Nc3ccc(Oc4ccnc(Nc5ccc(S(=O)(=O)N(C)C)cn5)c4)c(F)c3)cn(C(C)C)c2=O)c1 [Example 71] | 12 | 40

Source: patent publication US20230339891A1, “URACIL DERIVATIVES AS MER-AXL INHIBITORS” (BRISTOL-MYERS SQUIBB COMPANY, priority 2018, published 2023)
